Measurements: patent publication US10000507B2, “Furo- and thieno-pyridine carboxamide compounds useful as pim kinase inhibitors” (Incyte Corporation, priority 2013, dated 2018)

Experiments:
Assay type in all cases: biochemical
[1] = target: Pim-3 (Homo sapiens (Human), UniProt Q86V86); experiment: Pim-3 kinase assay; conditions: 1 mM ATP, biotin-labeled BAD peptide substrate; read-out: Pim3 IC50
How it was run: (§1)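 Biotin-BAD peptide ([…]) phosphorylated with 1 mM ATP by 2.5 pM Pim-1 or 1.25 pM Pim-3, 1 h at 25 °C in Tris pH 7.5, MgCl2, DTT buffer. EDTA stop with anti-phospho-BAD (Ser112) antibody and AlphaScreen streptavidin donor/Protein-A acceptor beads; signal read after 1 h dark incubation.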

[2] = target: Pim-1 (Homo sapiens (Human), UniProt P11309); experiment: Pim-1 kinase assay; conditions: 1 mM ATP, biotin-labeled BAD peptide substrate; read-out: Pim1 IC50
Chain of Pim-1 (P11309 whole entry): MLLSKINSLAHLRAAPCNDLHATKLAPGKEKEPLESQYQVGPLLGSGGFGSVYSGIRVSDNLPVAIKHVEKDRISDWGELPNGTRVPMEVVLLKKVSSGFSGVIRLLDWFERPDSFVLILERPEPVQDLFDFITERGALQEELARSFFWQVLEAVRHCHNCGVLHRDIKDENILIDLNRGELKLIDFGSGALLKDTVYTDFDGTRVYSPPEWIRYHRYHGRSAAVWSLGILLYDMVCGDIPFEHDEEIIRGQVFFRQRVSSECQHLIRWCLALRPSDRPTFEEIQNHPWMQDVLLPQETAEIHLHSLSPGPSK
How it was run: as §1

[3] = target: Pim-2 (Homo sapiens (Human), UniProt Q9P1W9); experiment: Pim-2 kinase assay; conditions: 1 mM ATP, fluorescein-labeled CREBtide peptide substrate; read-out: Pim2 IC50
Chain of Pim-2 (Q9P1W9 whole entry): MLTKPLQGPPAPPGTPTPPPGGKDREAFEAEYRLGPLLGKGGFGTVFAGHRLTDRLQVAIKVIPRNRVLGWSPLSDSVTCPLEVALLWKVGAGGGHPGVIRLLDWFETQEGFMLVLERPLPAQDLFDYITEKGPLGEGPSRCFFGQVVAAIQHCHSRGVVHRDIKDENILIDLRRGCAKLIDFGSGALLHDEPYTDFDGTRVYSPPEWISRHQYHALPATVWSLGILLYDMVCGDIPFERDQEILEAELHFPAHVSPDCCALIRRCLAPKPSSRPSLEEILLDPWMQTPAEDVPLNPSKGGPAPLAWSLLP
How it was run: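 Phosphorylated CREBtide was detected by terbium anti-pSer133 antibody TR-FRET after EDTA quench and 30 min at room temperature. Reactions ran 2 h at 25 °C with 1 mM ATP, 0.05 μM fluorescein-labelled substrate and 1 nM enzyme in pH 7.5 Tris buffer.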

Row | SMILES | IC50 [1] [nM] | IC50 [2] [nM] | IC50 [3] [nM]
1 | CC(C)c1cnc2c(C(=O)Nc3cnccc3N3C[C@@H](N)[C@H](O)[C@@H](C4CC4)C3)c(N)oc2c1 [Example 89, 2-Amino-N-{4-[(3R,4R,5S)-3-amino-5-cyclopropyl-4-hydroxypiperidin-1-yl]pyridin-3-yl}-6-isopropylfuro[3,2-b]pyridine-3-carboxamide] | ≤ 10 | ≤ 10 | ≤ 10
2 | Cn1ncc(NC(=O)c2c(N)oc3cc(C4CCOCC4)cnc23)c1N1C[C@@H](N)C[C@@H](C(F)(F)F)C1 [Example 90, 2-Amino-N-{5-[(3S,5R)-3-amino-5-(trifluoromethyl)piperidin-1-yl]-1-methyl-1H-pyrazol-4-yl}-6-(tetrahydro-2H-pyran-4-yl)furo[3,2-b]pyridine-3-carboxamide] | ≤ 10 | ≤ 10 | 10 to 100
3 | Nc1oc2cc(C3CCOCC3)cnc2c1C(=O)Nc1cnsc1N1C[C@@H](N)C[C@@H](C(F)(F)F)C1 [Example 91, 2-Amino-N-{5-[(3S,5R)-3-amino-5-(trifluoromethyl)piperidin-1-yl]isothiazol-4-yl}-6-(tetrahydro-2H-pyran-4-yl)furo[3,2-b]pyridine-3-carboxamide] | ≤ 10 | ≤ 10 | 10 to 100
4 | Nc1oc2cc(C3CCOCC3)cnc2c1C(=O)Nc1cnccc1N1C[C@@H](N)C[C@@H](C(F)(F)F)C1 [Example 92, 2-Amino-N-{4-[(3S,5R)-3-amino-5-(trifluoromethyl)piperidin-1-yl]pyridin-3-yl}-6-(tetrahydro-2H-pyran-4-yl)furo[3,2-b]pyridine-3-carboxamide] | ≤ 10 | ≤ 10 | ≤ 10
5 | CN1CCC(c2cnc3c(C(=O)Nc4cnccc4N4C[C@@H](N)C[C@@H](C(F)(F)F)C4)c(N)oc3c2)CC1 [Example 93, 2-Amino-N-{4-[(3S,5R)-3-amino-5-(trifluoromethyl)piperidin-1-yl]pyridin-3-yl}-6-(1-methylpiperidin-4-yl)furo[3,2-b]pyridine-3-carboxamide] | ≤ 10 | ≤ 10 | 10 to 100
6 | CN1CCC(c2cnc3c(C(=O)Nc4cnn(C)c4N4C[C@@H](N)C[C@@H](C(F)(F)F)C4)c(N)oc3c2)CC1 [Example 94, 2-Amino-N-{5-[(3S,5R)-3-amino-5-(trifluoromethyl)piperidin-1-yl]-1-methyl-1H-pyrazol-4-yl}-6-(1-methylpiperidin-4-yl)furo[3,2-b]pyridine-3-carboxamide] | ≤ 10 | ≤ 10 | 10 to 100
7 | C[C@@H]1C[C@H](N)CN(c2ccncc2NC(=O)c2c(N)oc3cc(C4CCOCC4)cnc23)C1 [Example 95, 2-Amino-N-{4-[(3S,5R)-3-amino-5-methylpiperidin-1-yl]pyridin-3-yl}-6-(tetrahydro-2H-pyran-4-yl)furo[3,2-b]pyridine-3-carboxamide] | ≤ 10 | ≤ 10 | 10 to 100
8 | C[C@@H]1C[C@H](N)CN(c2sncc2NC(=O)c2c(N)oc3cc(C4CCOCC4)cnc23)C1 [Example 96] | ≤ 10 | ≤ 10 | 10 to 100
9 | C[C@@H]1C[C@H](N)CN(c2ccncc2NC(=O)c2c(N)oc3cc(C4CCC4)cnc23)C1 [Example 97, 2-Amino-N-{4-[(3S,5R)-3-amino-5-methylpiperidin-1-yl]pyridin-3-yl}-6-cyclobutylfuro[3,2-b]pyridine-3-carboxamide] | ≤ 10 | ≤ 10 | ≤ 10
10 | Nc1oc2cc(C3CCC3)cnc2c1C(=O)Nc1cnccc1N1C[C@@H](N)C[C@@H](C(F)(F)F)C1 [Example 98, 2-Amino-N-{4-[(3S,5R)-3-amino-5-(trifluoromethyl)piperidin-1-yl]pyridin-3-yl}-6-cyclobutylfuro[3,2-b]pyridine-3-carboxamide] | ≤ 10 | ≤ 10 | ≤ 10
11 | Nc1oc2cc(CN3CC(F)C3)cnc2c1C(=O)Nc1cnccc1N1C[C@@H](N)C[C@@H](C(F)(F)F)C1 [Example 99, 2-Amino-N-{4-[(3S,5R)-3-amino-5-(trifluoromethyl)piperidin-1-yl]pyridin-3-yl}-6-[(3-fluoroazetidin-1-yl)methyl]furo[3,2-b]pyridine-3-carboxamide] | ≤ 10 | ≤ 10 | 10 to 100
12 | Nc1oc2cc(CN3CC(F)(F)C3)cnc2c1C(=O)Nc1cnccc1N1C[C@@H](N)C[C@@H](C(F)(F)F)C1 [Example 100, 2-Amino-N-{4-[(3S,5R)-3-amino-5-(trifluoromethyl)piperidin-1-yl]pyridin-3-yl}-6-[(3,3-difluoroazetidin-1-yl)methyl]furo[3,2-b]pyridine-3-carboxamide] | ≤ 10 | ≤ 10 | 10 to 100
13 | Nc1oc2cc(CN3CC(O)C3)cnc2c1C(=O)Nc1cnccc1N1C[C@@H](N)C[C@@H](C(F)(F)F)C1 [Example 101, 2-Amino-N-{4-[(3S,5R)-3-amino-5-(trifluoromethyl)piperidin-1-yl]pyridin-3-yl}-6-[(3-hydroxyazetidin-1-yl)methyl]furo[3,2-b]pyridine-3-carboxamide] | ≤ 10 | ≤ 10 | 10 to 100
14 | CC(C)c1cnc2c(C(=O)Nc3cnccc3N3C[C@@H](N)[C@@H](n4ccnn4)[C@@H](C)C3)c(N)oc2c1 [Example 102, 2-Amino-N-{4-[(3R,4S,5S)-3-amino-5-methyl-4-(1H-1,2,3-triazol-1-yl)piperidin-1-yl]pyridin-3-yl}-6-isopropylfuro[3,2-b]pyridine-3-carboxamide] | ≤ 10 | ≤ 10 | 10 to 100
15 | COC1CCN(Cc2cnc3c(C(=O)Nc4cnccc4N4C[C@@H](N)C[C@@H](C(F)(F)F)C4)c(N)oc3c2)C1 (stereo partly drawn) [Example 103, 2-Amino-N-{4-[(3S,5R)-3-amino-5-(trifluoromethyl)piperidin-1-yl]pyridin-3-yl}-6-[(3-methoxypyrrolidin-1-yl)methyl]furo[3,2-b]pyridine-3-carboxamide] | ≤ 10 | ≤ 10 | 10 to 100
16 | CCOC1CCN(Cc2cnc3c(C(=O)Nc4cnccc4N4C[C@@H](N)C[C@@H](C(F)(F)F)C4)c(N)oc3c2)C1 (stereo partly drawn) [Example 104, 2-Amino-N-{4-[(3S,5R)-3-amino-5-(trifluoromethyl)piperidin-1-yl]pyridin-3-yl}-6-[(3-ethoxypyrrolidin-1-yl)methyl]furo[3,2-b]pyridine-3-carboxamide] | ≤ 10 | ≤ 10 | 10 to 100
17 | Nc1oc2cc(CN3CC[C@@H](F)C3)cnc2c1C(=O)Nc1cnccc1N1C[C@@H](N)C[C@@H](C(F)(F)F)C1 [Example 105, 2-Amino-N-{4-[(3S,5R)-3-amino-5-(trifluoromethyl)piperidin-1-yl]pyridin-3-yl}-6-{[(3R)-3-fluoropyrrolidin-1-yl]methyl}furo[3,2-b]pyridine-3-carboxamide] | ≤ 10 | ≤ 10 | 10 to 100
18 | Nc1oc2cc(CN3CC[C@H](F)C3)cnc2c1C(=O)Nc1cnccc1N1C[C@@H](N)C[C@@H](C(F)(F)F)C1 [Example 106, 2-Amino-N-{4-[(3S,5R)-3-amino-5-(trifluoromethyl)piperidin-1-yl]pyridin-3-yl}-6-{[(3S)-3-fluoropyrrolidin-1-yl]methyl}furo[3,2-b]pyridine-3-carboxamide] | ≤ 10 | ≤ 10 | 10 to 100
19 | COC1CCN(Cc2cnc3c(C(=O)Nc4cnccc4N4C[C@@H](N)C[C@@H](C(F)(F)F)C4)c(N)oc3c2)CC1 [Example 107, 2-Amino-N-{4-[(3S,5R)-3-amino-5-(trifluoromethyl)piperidin-1-yl]pyridin-3-yl}-6-[(4-methoxypiperidin-1-yl)methyl]furo[3,2-b]pyridine-3-carboxamide] | ≤ 10 | ≤ 10 | 10 to 100
20 | CN1CCN(Cc2cnc3c(C(=O)Nc4cnccc4N4C[C@@H](N)C[C@@H](C(F)(F)F)C4)c(N)oc3c2)CC1 [Example 108, 2-Amino-N-{4-[(3S,5R)-3-amino-5-(trifluoromethyl)piperidin-1-yl]pyridin-3-yl}-6-[(4-methylpiperazin-1-yl)methyl]furo[3,2-b]pyridine-3-carboxamide] | ≤ 10 | ≤ 10 | 10 to 100
21 | Cn1cc(-c2cnc3c(C(=O)Nc4cnccc4N4C[C@@H](N)C[C@@H](C(F)(F)F)C4)c(N)oc3c2)cn1 [Example 109, 2-Amino-N-{4-[(3S,5R)-3-amino-5-(trifluoromethyl)piperidin-1-yl]pyridin-3-yl}-6-(1-methyl-1H-pyrazol-4-yl)furo[3,2-b]pyridine-3-carboxamide] | ≤ 10 | ≤ 10 | 10 to 100
22 | C[C@@H]1C[C@H](N)CN(c2ccncc2NC(=O)c2c(N)oc3cc(-c4cnn(C)c4)cnc23)C1 [Example 110, 2-Amino-N-{4-[(3S,5R)-3-amino-5-methylpiperidin-1-yl]pyridin-3-yl}-6-(1-methyl-1H-pyrazol-4-yl)furo[3,2-b]pyridine-3-carboxamide] | ≤ 10 | ≤ 10 | 10 to 100
23 | Nc1oc2cc(-c3cncnc3)cnc2c1C(=O)Nc1cnccc1N1C[C@@H](N)C[C@@H](C(F)(F)F)C1 [Example 111, 2-Amino-N-{4-[(3S,5R)-3-amino-5-(trifluoromethyl)piperidin-1-yl]pyridin-3-yl}-6-pyrimidin-5-ylfuro[3,2-b]pyridine-3-carboxamide] | ≤ 10 | ≤ 10 | 10 to 100
